Data on 37 compounds can be found in patent US8466188B2, “Use of spiro-oxindole compounds as therapeutic agents” (Xenon Pharmaceuticals Inc., priority 2006, dated 2013).

Bounds are passed on as bounds.

Broadly, the melting point is the temperature of the solid-liquid transition. `O=C1N(Cc2cnc(Cl)s2)c2ccccc2C12COc1cc3c(cc12)OCO3` (stereo not shown) [Example 10.70, 1′[(2-chloro-1,3-thiazol-5-yl)methyl]spiro[furo[2,3-f][1,3]benzodioxole-7,3′-indol]-2′(1′H)one] came in with a melting point of 195 to 198 °C.

`O=C1N(Cc2ccc(-c3ccccc3Cl)o2)c2ccccc2C12COc1cc3c(cc12)OCO3` (stereo not shown) [Example 10.64, 1′-{[5-(2-chlorophenyl)-2-furyl]methyl}spiro[furo[2,3-f][1,3]benzodioxole-7,3′-indol]-2′(1′H)-one]: the melting point fell in the range of 148 to 150 °C.

As to `O=C1N(Cc2sc(C(F)(F)F)cc2O)c2ccccc2C12COc1cc3c(cc12)OCO3` (stereo not shown) [Example 10.68, 1′-{[3-hydroxy-5-(trifluoromethyl)-2-thienyl]methyl}spiro[furo[2,3-f][1,3]benzodioxole-7,3′-indol]-2′(1′H)-one], the melting point fell in the range of 225 to 227 °C. As for `CC1(C)Cc2cc3c(cc2O1)OCC31C(=O)N(CC(=O)Nc2ccccc2F)c2cccc(-c3cncnc3)c21` (stereo not shown) [Example 4.3, 2-(6,6-dimethyl-2′-oxo-4′-pyrimidin-5-yl-5,6-dihydrospiro[benzo[1,2-b:5,4-b′]difuran-3,3′-indol]-1′(2′H)-yl)-N-(2-fluorophenyl)acetamide], the melting point is over 250 °C.

`COc1ccc(CN2C(=O)C3(COc4cc5c(cc43)CCO5)c3ccccc32)cc1` (stereo not shown) [Example 10.46, 1′-(4-methoxybenzyl)-5,6-dihydrospiro[benzo[1,2-b:5,4-b′]difuran-3,3′-indol]-2′(1′H)-one]: the melting point lay within 120 to 121 °C. `N#Cc1ccc(CN2C(=O)C3(COc4cc5c(cc43)OCO5)c3ccccc32)o1` (stereo not shown) [Example 10.80, 5-[(2′-oxospiro[furo[2,3-f][1,3]benzodioxole-7,3′-indol]-1′(2′H)-yl)methyl]-2-furonitrile] came in with a melting point of 167 to 169 °C. `O=C(CN1C(=O)C2(COc3ccc(Br)cc32)c2ccccc21)Nc1ccccc1F` (stereo not shown) [Example 3.10, 2-(5-bromo-2′-oxospiro[1-benzofuran-3,3′-indol]-1′(2′H)-yl)-N-(2-fluorophenyl)acetamide]: the melting point lay in the range of 100 to 103 °C. In turn, `Cl.O=C1N(Cc2ccc(N3CCCC3)nc2)c2ccccc2C12COc1cc3c(cc12)OCO3` (stereo not shown) gave a melting point of 160 to 165 °C. `CC1(C)COc2cc3c(cc21)C1(CO3)C(=O)N(Cc2ccc(C(F)(F)F)o2)c2ccccc21` (stereo not shown) [Example 10.21, 5,5-dimethyl-1′-{[5-(trifluoromethyl)-2-furyl]methyl}-5,6-dihydrospiro[benzo[1,2-b:5,4-b′]difuran-3,3′-indol]-2′(1′H)-one] came in with a melting point of 155 to 160 °C. `Cl.O=C1N(CCC2CCN(C3CCC3)CC2)c2ccccc2C12COc1cc3c(cc12)OCO3` (stereo not shown) returned a melting point of 158 to 160 °C.

In turn, `O=C1N(Cc2ccc(Cl)s2)c2ccc(F)cc2C12COc1cc3c(cc12)OCO3` (stereo not shown) [Example 10.61, 1′-[(5-chloro-2-thienyl)methyl]-5′-fluorospiro[furo[2,3-f][1,3]benzodioxole-7,3′-indol]-2′(1′H)-one] had a melting point of 142 to 144 °C. `Cc1oncc1CN1C(=O)C2(COc3cc4c(cc32)OCO4)c2ccccc21` (stereo not shown) [Example 10.34, 1′-[(5-methylisoxazol-4-yl)methyl]spiro[furo[2,3-f][1,3]benzodioxole-7,3′indol]-2′(1′H)-one] gave a melting point of 159 to 161 °C. In turn, `O=C1N(Cc2ccc(C(F)(F)F)o2)c2ccccc2C12COc1cc(OC(F)(F)F)ccc12` (stereo not shown) [Example 10.90, 6-(trifluoromethoxy)-1′-{[5-(trifluoromethyl)-2-furyl]methyl}spiro[1-benzofuran-3,3′-indol]-2′(1′H)-one] registered a melting point of 78 to 80 °C. In turn, `CC(C)N1CCC(CN2C(=O)C3(COc4cc5c(cc43)OCO5)c3cccc(F)c32)CC1.Cl` (stereo not shown) gave a melting point of 157 to 160 °C. `CN(C)c1ccc(-c2cccc3c2C2(COc4cc5c(cc42)OCO5)C(=O)N3Cc2ccc(C(F)(F)F)o2)cn1` (stereo not shown) [Example 4.7, 4′-[6-(dimethylamino)pyridin-3-yl]-1′-{[5-(trifluoromethyl)-2-furyl]methyl}spiro[furo[2,3-f][1,3]benzodioxole-7,3′-indol]-2′(1′H)-one] returned a melting point of 174 to 176 °C. The compound `Cl.O=C1N(Cc2ccc(N3CCOCC3)nc2)c2ccccc2C12COc1cc3c(cc12)OCO3` (stereo not shown) showed a melting point of 185 to 200 °C. For the compound `O=C1N(Cc2ccc(C(F)(F)F)o2)c2cccc(-c3ccoc3)c2C12COc1cc3c(cc12)CCO3` (stereo not shown) [Example 4.12, 4′-(3-furyl)-1′-{[5-(trifluoromethyl)-2-furyl]methyl}-5,6-dihydrospiro[benzo[1,2-b:5,4-b′]difuran-3,3′-indol]-2′(1′H)-one], the melting point was in the range of 167 to 169 °C.

As for `O=C1N(Cc2ccc(C(F)(F)F)o2)c2cccc(Br)c2C12COc1cc3c(cc12)CCO3` (stereo not shown) [Example 10.48, 4′-bromo-1′-{[5-(trifluoromethyl)-2-furyl]methyl}-5,6-dihydrospiro[benzo[1,2-b:5,4-b′]difuran-3,3′-indol]-2′(1′H)-one], the melting point lay in the range of 182 to 184 °C. The compound `Cc1ccc2c(c1)C1(COc3cc4c(cc31)OCO4)C(=O)N2` (stereo not shown) [Example 1.28, 5′-methylspiro[furo[2,3-f][1,3]benzodioxole-7,3′-indol]-2′(1′H)-one] returned a melting point of 269 to 271 °C. Under `O=C1Nc2cccc(-c3ccoc3)c2C12COc1cc3c(cc12)OCO3` (stereo not shown) [Example 4.4, 4′-(3-furyl)spiro[furo[2,3-f][1,3]benzodioxole-7,3′-indol]-2′(1′H)-one] stands 270 to 272 °C. In turn, `Cc1ccc(CN2C(=O)C3(COc4cc5c(cc43)OCO5)c3ccccc32)o1` (stereo not shown) [Example 10.65, 1′-[(5-methyl-2-furyl)methyl]spiro[furo[2,3-f][1,3]benzodioxole-7,3′-indol]-2′(1′H)-one] showed a melting point of 117 to 119 °C. Compound `O=C1N(CC2CCCCC2)c2ccccc2C12COc1cc3c(cc12)OCO3` (stereo not shown) [Example 10.92, 1′-(cyclohexylmethyl)spiro[furo[2,3-f][1,3]benzodioxole-7,3′-indol]-2′(1′H)-one] gave a melting point of 153 to 154 °C. In turn, `Cl.O=C1N(CCN2CCCCC2)c2ccccc2C12COc1cc3c(cc12)OCO3` (stereo not shown) yielded a melting point of over 240 °C. Under `Cl.O=C1N(CCC2CCN(C3CCCC3)CC2)c2ccccc2C12COc1cc3c(cc12)OCO3` (stereo not shown) stands 153 to 155 °C; under `CCCCCN1C(=O)C2(COc3cc4c(cc32)OCO4)c2c(C(=O)Nc3cccc(OC)c3)cccc21` (stereo not shown) [Example 29.1, N-(3-methoxyphenyl)-2′-oxo-1′-pentyl-1′,2′-dihydrospiro[furo[2,3-f][1,3]benzodioxole-7,3′-indole]-4′-carboxamide], 173 to 175 °C. Take `O=C1N(Cc2ccccn2)c2cccc(-c3cccnc3)c2C12COc1cc3c(cc12)CCO3` (stereo not shown) [Example 4.11, 4′-pyridin-3-yl-1′-(pyridin-2-ylmethyl)-5,6-dihydrospiro[benzo[1,2-b:5,4-b′]difuran-3,3′-indol]-2′(1′H)-one]: the melting point is over 200 °C. Under `O=C1N(Cc2ccco2)c2ccccc2C12COc1cc3c(cc12)OCO3` (stereo not shown) [Example 10.52, 1′-(2-furylmethyl)spiro[furo[2,3-f][1,3]benzodioxole-7,3′-indol]-2′(1′H)-one] stands 110 to 112 °C; under `O=C1N(Cc2ccc(C(F)(F)F)o2)c2ccccc2C12COc1cc3c(cc12)OCC3` (stereo not shown) [Example 10.71, 1′-{[5-(trifluoromethyl)-2-furyl]methyl}-6,7-dihydrospiro[benzo[1,2-b:4,5-b′]difuran-3,3′-indol]-2′(1′H)-one], 174 to 177 °C; under `O=C1Nc2cccc(-c3cncnc3)c2C12COc1cc3c(cc12)OCO3` (stereo not shown) [Example 4.8, 4′-pyrimidin-5-ylspiro[furo[2,3-f][1,3]benzodioxole-7,3′-indol]-2′(1′H)-one], 185 to 187 °C. For `Cc1ccc(F)c2c1N(CC(=O)Nc1ccccc1F)C(=O)C21COc2cc3c(cc21)CCO3` (stereo not shown) [Example 3.14, 2-(4′-fluoro-7′-methyl-2′-oxo-5,6-dihydrospiro[benzo[1,2-b:5,4-b′]difuran-3,3′-indol]-1′(2′H)-yl)-N-(2-fluorophenyl)acetamide] the value was 250 to 255 °C. Take `CCCCCN1C(=O)C2(COc3cc4nc(C)sc4cc32)c2ccccc21` (stereo not shown) [Example 1.32, 2-methyl-1′-pentylspiro[furo[2,3-f][1,3]benzothiazole-7,3′-indol]-2′(1′H)-one]: the melting point lay in the range of 105 to 107 °C.

On to `COc1cc(C(F)(F)F)sc1CN1C(=O)C2(COc3cc4c(cc32)OCO4)c2ccccc21` (stereo not shown) [Example 10.74, 1′-{[3-methoxy-5-(trifluoromethyl)-2-thienyl]methyl}spiro[furo[2,3-f][1,3]benzodioxole-7,3′-indol]-2′(1′H)-one], for which the melting point lay in the range of 178 to 180 °C. Under `CS(=O)(=O)c1ccc(CN2C(=O)C3(COc4cc5c(cc43)OCO5)c3ccccc32)o1` (stereo not shown) [Example 10.81, 1′-{[5-(methylsulfonyl)-2-furyl]methyl}spiro[furo[2,3-f][1,3]benzodioxole-7,3′-indol]-2′(1′H)-one] stands 177 to 179 °C; under `CC1(C)COc2cc3c(cc21)C1(CO3)C(=O)N(Cc2ccccn2)c2ccccc21.Cl` (stereo not shown), 145 to 147 °C. On to `CC(C)(C)OC(=O)N1CCC(CN2C(=O)C3(COc4cc5c(cc43)CCO5)c3ccccc32)CC1` (stereo not shown) [Example 10.43, tert-butyl 4-[(2′-oxo-5,6-dihydrospiro[benzo[1,2-b:5,4-b′]difuran-3,3′-indol]-1′(2′H)-yl)methyl]piperidine 1-carboxylate], for which the melting point was 96 to 98 °C. Under `O=C(CN1C(=O)C2(COc3cc4c(cc32)CCO4)c2c(Cl)cccc21)Nc1ccccc1F` (stereo not shown) [Example 3.6, 2-(4′-chloro-2′-oxo-5,6-dihydrospiro[benzo[1,2-b:5,4-b′]difuran-3,3′-indol]-1′(2′H)-yl)-N-(2-fluorophenyl)acetamide] stands 243 to 245 °C; under `Cl.O=C1N(Cc2cccnc2)c2ccccc2C12COc1cc(OC(F)(F)F)ccc12` (stereo not shown), 151 to 153 °C.
